IC50 data for four molecules are collected here from patent US5459156A, “Imidazolyl-substituted phenylacetic acid prolinamides” (Bayer Aktiengesellschaft, priority 1993, dated 1995).

pIC50: −log10 of the molar value.

The test system of one assay is smooth muscle cells. The experiment in a line: Inhibition of the proliferation of smooth muscle cells (3H-thymidine incorporation). Format: cell-based, rats. The following applies: rat aorta smooth muscle cells; inhibition of thymidine incorporation produced by 10% FCS; Table B. The method, then: Investigation of the Inhibition of the Proliferation of Smooth Muscle Cells by the Compounds According to the Invention
To determine the antiprofilerative action of the compounds, smooth muscle cells are used which are obtained from aortas of rats by the media explant technique [R. Ross, J. Cell. Biol. 50, 172, 1971]. The cells are inoculated in suitable culture dishes, as a rule 96-hole plates, and cultured in 5% CO2 at 37° C. for 2-3 days in medium 199 containing 7.5% FCS and 7.5% NCS, 2 mM L-glutamine and 15 mM HEPES, pH 7.4. The cells are then synchronized by withdrawal of serum for 2-3 days and then stimulated into growth with serum or other factors. Test compounds are simultaneously added. After 16-20 hours, 1 μCi ^3 H-thymidine is added and after a further 4 hours the incorporation of this substance into the TCA-precipitatable DNA of the cells is determined. To determine the IC50 values, the active compound concentration is determined which, on sequential dilution of the active compound, causes semi-maximal inhibition of the thymidine incorporation produced by 10% FCS.
Background: Uptake of a labelled nucleoside into DNA is a usual measure of proliferation.

For another assay, the target named is T1, Angiotensin II Receptor (Bos taurus, UniProt P25104).
T1 construct: partially purified membrane fractions of bovine AGC using radioactive angiotensin II; from tissue; host or cells: bovine adrenal gland cortex, partially purified membrane fractions
T1 sequence (P25104 1-359): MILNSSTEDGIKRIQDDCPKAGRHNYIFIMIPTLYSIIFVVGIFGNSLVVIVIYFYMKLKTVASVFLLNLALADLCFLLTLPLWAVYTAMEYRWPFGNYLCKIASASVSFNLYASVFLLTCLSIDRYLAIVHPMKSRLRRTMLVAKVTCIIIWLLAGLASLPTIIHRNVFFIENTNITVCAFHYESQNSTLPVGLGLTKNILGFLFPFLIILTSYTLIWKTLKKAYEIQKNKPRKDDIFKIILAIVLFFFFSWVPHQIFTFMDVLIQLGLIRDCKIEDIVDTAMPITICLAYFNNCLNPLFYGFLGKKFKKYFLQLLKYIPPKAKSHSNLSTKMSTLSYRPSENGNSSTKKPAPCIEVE
The experiment in a line: Inhibition of the specific binding of radioactive angiotensin II to the angiotensin II receptor in membrane fractions of the adrenal gland cortex (bovine). The following applies: bovine adrenal gland cortex membranes; 3H-angiotensin II (3-5 nM); 60 min, room temperature; Table A. The text has this: Interaction of the Compounds According to the Invention with the Angiotensin II Receptor in Membrane Fractions of the Adrenal Gland Cortex (Bovine)
Bovine adrenal gland cortices (AGC), which have been freshly removed and carefully freed from gland medulla, are comminuted in sucrose solution (0.32M) with the aid of an Ultra-Turrax (Janke & Kunkel, Staufen i.B.) to give a coarse membrane homogenate and partially purified in two centrifugation steps to give membrane fractions. The receptor binding investigations are carried out on partially purified membrane fractions of bovine AGC using radioactive angiotensin II in an assay volume of 0.25 ml, which specifically contains the partially purified membranes (50-80 μg), ^3 H-angiotensin II (3-5 nM), test buffer solution (50 mM Tris, pH 7.2), 5 mM MgCl2 and the substances to be investigated. After an incubation time of 60 min at room temperature, the unbound radioactivity of the samples is separated by means of moistened glass fibre filters (Whatman GF/C) and the bound radioactivity is measured spectrophotometrically in a scintillation cocktail after washing the protein with ice-cold buffer solution (50 mM Tris/HCl, pH 7.4, 5% PEG 6000). […]

One may read the pIC50 as the IC50 on a negative log10 scale, so that one unit is a factor of ten. `CCCCc1nc(Cl)c(CO)n1Cc1ccc(C(C(=O)N2CCC[C@H]2C(=O)OC(C)(C)C)C2CCCC2)cc1` (single isomer, unassigned) [Example 14] gave a pIC50 with smooth muscle cells of 6.35. In the case of `CCCCc1nc(Cl)c(C(=O)O)n1Cc1ccc(C(C(=O)N2CCC[C@H]2C(N)=O)C2CCCC2)cc1` (stereo partly drawn) [Example 7, 2-[4-(2-Butyl-4-chloro-5-carboxy-imidazol-1-yl-methyl)-phenyl]-2-cyclopentylacetic acid (L-prolinamido) amide], on Angiotensin II Receptor, the pIC50 was 6.24. For `CCCCc1nc(Cl)c(CO)n1Cc1ccc(C(C(=O)N2CCC[C@H]2C(=O)N[C@H](CO)c2ccccc2)C2CCCC2)cc1` (stereo partly drawn) [Example 9, 2-[4-(2-Butyl-4-chloro-5-hydroxymethyl-imidazol-1-yl-methyl)phenyl]-2-cyclopentylacetic acid (L-prolinephenylglycinolamido) amide], the negative logarithm of the IC50 (pIC50) in the assay with smooth muscle cells was 6.07. Turning to `CCCCc1nc(Cl)c(C(=O)O)n1Cc1ccc(C(C(=O)N2CCC[C@H]2C(=O)OCc2ccccc2)C2CCCC2)cc1` (stereo partly shown) [Example 12], the pIC50 at Angiotensin II Receptor is 6.54.
